Patent US9834542B2, “LXR modulators” (BRISTOL-MYERS SQUIBB COMPANY, priority 2013, dated 2017)

Target: T1, LXRβ (Homo sapiens, UniProt P55055)
T1 construct: Co-transfection expression plasmids, comprising full-length LXRα (pCMX-h LXRα[…] or LXRβ (pCMX-hLXRβ)); expressed in transfected cells; host or cells: CV-1 African Green Monkey Kidney Cells
T1 sequence (P55055 1-460): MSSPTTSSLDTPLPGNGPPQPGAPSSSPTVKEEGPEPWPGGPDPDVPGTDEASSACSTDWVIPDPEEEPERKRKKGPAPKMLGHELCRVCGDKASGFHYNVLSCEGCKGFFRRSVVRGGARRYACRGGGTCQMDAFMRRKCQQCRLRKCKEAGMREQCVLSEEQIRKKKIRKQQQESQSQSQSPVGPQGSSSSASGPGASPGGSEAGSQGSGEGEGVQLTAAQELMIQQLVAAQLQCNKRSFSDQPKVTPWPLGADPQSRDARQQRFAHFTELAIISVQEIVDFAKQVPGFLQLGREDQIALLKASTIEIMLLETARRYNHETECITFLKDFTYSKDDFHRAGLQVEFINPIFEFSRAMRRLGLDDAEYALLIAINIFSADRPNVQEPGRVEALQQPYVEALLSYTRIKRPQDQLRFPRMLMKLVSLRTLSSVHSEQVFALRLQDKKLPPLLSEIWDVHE
T1 sequence (P19793 1-462 partner): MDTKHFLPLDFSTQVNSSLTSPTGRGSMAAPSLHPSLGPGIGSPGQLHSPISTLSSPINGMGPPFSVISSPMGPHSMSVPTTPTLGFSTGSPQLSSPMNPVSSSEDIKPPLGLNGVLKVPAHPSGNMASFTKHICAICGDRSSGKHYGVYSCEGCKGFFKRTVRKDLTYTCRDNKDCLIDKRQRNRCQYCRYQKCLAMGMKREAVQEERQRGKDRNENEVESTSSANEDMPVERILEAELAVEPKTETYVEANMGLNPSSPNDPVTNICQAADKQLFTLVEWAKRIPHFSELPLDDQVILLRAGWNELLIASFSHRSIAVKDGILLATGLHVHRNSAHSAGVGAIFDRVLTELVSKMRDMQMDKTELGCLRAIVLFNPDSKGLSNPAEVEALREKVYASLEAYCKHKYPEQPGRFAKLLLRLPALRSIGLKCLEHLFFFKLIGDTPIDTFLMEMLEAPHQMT
Assay: Co-transfection assay (LXRE luciferase reporter), LXRβ
Format: cell-based
Conditions: for EC50: CV-1 cells transfected with pCMX-hLXRβ and LXREx1-Tk-Luciferase, 20 hours incubation; for Emax: LXRβ co-transfection, relative to high control 1-(2,4-difluorobenzyl)-2-oxo-6-(4-phenoxyphenyl)-4-(trifluoromethyl)-1,2-dihydropyridine-3-carbonitrile, read-out: % Efficacy
Outline: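 Luciferase output from an LXRE-Tk reporter measured after 20 h, 37 °C compound exposure of transiently transfected CV-1 cells expressing human LXRβ with endogenous RXR. EC50 fitted from 11-point half-log dose responses (mean of ≥2 runs); % efficacy versus maximal response of the reference agonist.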

| Compound | EC50 [nM] | Emax [%] |
| --- | --- | --- |
| Cc1nc(C(F)(F)F)cn1-c1ccc(-c2cccc(S(C)(=O)=O)c2)cc1-n1nncc1Cc1ccc(Cl)cc1 [Example 125, 5-[(4-chlorophenyl)methyl]-1-{3′-(methylsulfonyl)-4-[2-methyl-4-(trifluoromethyl)-1H-imidazol-1-yl]biphenyl-3-yl}-1H-1,2,3-triazole] | 355 | 83 |
| Cc1nc(C(F)(F)F)cn1-c1ccc(-c2cccc(S(C)(=O)=O)c2)cc1-n1nncc1C(O)(c1ccc(Cl)cc1)C(F)(F)F (stereo not drawn) [Example 11, 1-(4-chlorophenyl)-2,2,2-trifluoro-1-(1-{3′-(methylsulfonyl)-4-[2-methyl-4-(trifluoromethyl)-1H-imidazol-1-yl]biphenyl-3-yl}-1H-1,2,3-triazol-5-yl) ethanol] | 332 | 79 |
| Cc1nc(Cl)cn1-c1ccc(-c2cccc(S(C)(=O)=O)c2)cc1-n1nncc1-c1ccc(Cl)cc1 [Example 150, 1-[4-(4-chloro-2-methyl-1H-imidazol-1-yl)-3′-(methylsulfonyl)biphenyl-3-yl]-5-(4-chlorophenyl)-1H-1,2,3-triazole] | 1290 | 56 |
| CS(=O)(=O)c1cccc(-c2ccc(-n3cnc(C(F)(F)F)c3)c(-n3nncc3-c3ccc(Cl)cc3Cl)c2)c1 [Example 19, 5-(2,4-dichlorophenyl)-1-{3′-(methylsulfonyl)-4-[4-(trifluoromethyl)-1H-imidazol-1-yl]biphenyl-3-yl}-1H-1,2,3-triazole] | 1070 | 80 |
| CNS(=O)(=O)c1cccc(-c2ccc(-n3cc(C(F)F)nc3C)c(-n3nncc3C(C)c3ccc(Cl)cc3)c2)c1 (stereo not drawn) [Example 130, 3′-{5-[1-(4-chlorophenyl)ethyl]-1H-1,2,3-triazol-1-yl}-4′-[4-(difluoromethyl)-2-methyl-1H-imidazol-1-yl]-N-methylbiphenyl-3-sulfonamide] | 896 | 68 |
| Cc1nc(C(F)F)cn1-c1ccc(-c2cccc(S(C)(=O)=O)c2)cc1-n1nncc1-c1ccc(OC(F)(F)F)cc1 [Example 6] | 848 | 93 |
| Cc1nc(C(F)(F)F)cn1-c1ccc(-c2cccc(S(C)(=O)=O)c2)cc1-n1nncc1-c1ccc(OC(F)F)cc1 [Example 65, 5-{4-[(difluoromethyl)oxy]phenyl}-1-{3′-(methylsulfonyl)-4-[2-methyl-4-(trifluoromethyl)-1H-imidazol-1-yl]biphenyl-3-yl}-1H-1,2,3-triazole] | 297 | 80 |
| Cc1nc(C(F)(F)F)cn1-c1ccc(-c2cccc(S(C)(=O)=O)c2)cc1-n1nncc1-c1ccc(C(F)(F)F)nc1 [Example 80, 5-(1-{3′-(methylsulfonyl)-4-[2-methyl-4-(trifluoromethyl)-1H-imidazol-1-yl]biphenyl-3-yl}-1H-1,2,3-triazol-5-yl)-2-(trifluoromethyl)pyridine] | 2690 | 81 |
| Cc1nc(C(F)(F)F)cn1-c1ccc(-c2cc(Cl)c(CO)c(S(C)(=O)=O)c2)cc1-n1nncc1-c1ccc2c(c1)OC(F)(F)O2 [Example 21, {3-chloro-3′-[5-(2,2-difluoro-1,3-benzodioxol-5-yl)-1H-1,2,3-triazol-1-yl]-5-(methylsulfonyl)-4′-[2-methyl-4-(trifluoromethyl)-1H-imidazol-1-yl]biphenyl-4-yl}methanol] | 502 | 65 |

Now from value to compound:

| EC50 [nM] | Emax [%] | Compound |
| --- | --- | --- |
| 643 | 66 | Cc1nc(C(C)(F)F)cn1-c1ccc(-c2cccc(S(C)(=O)=O)c2)cc1-n1nncc1-c1ccc(OC(F)(F)F)cc1 [Example 165, 1-{4-[4-(1,1-difluoroethyl)-2-methyl-1H-imidazol-1-yl]-3′-(methylsulfonyl)biphenyl-3-yl}-5-{4-[(trifluoromethyl)oxy]phenyl}-1H-1,2,3-triazole] |
| 65 | 70 | Cc1nc(C(F)(F)F)cn1-c1ccc(-c2cc(F)c(CO)c(S(C)(=O)=O)c2)cc1-c1ccnn1-c1ccc(OC(F)(F)F)cc1 [Example 292, [3-fluoro-5-(methylsulfonyl)-4′-[2-methyl-4-(trifluoromethyl)-1H-imidazol-1-yl]-3′-(1-{4-[(trifluoromethyl)oxy]phenyl}-1H-pyrazol-5-yl)biphenyl-4-yl]methanol] |
| 657 | 70 | COc1ncc(-c2oc(C)nc2-c2cc(-c3cccc(S(C)(=O)=O)c3)ccc2-n2cc(C(F)(F)F)nc2C)cn1 [Example 414, 5-(2-methoxypyrimidin-5-yl)-2-methyl-4-(4-(2-methyl-4-(trifluoromethyl)-1H-imidazol-1-yl)-3′-(methylsulfonyl)biphenyl-3-yl)oxazole] |
| 106 | 77 | Cc1nc(C(F)(F)F)cn1-c1c(F)cc(-c2cc(F)c(CO)c(S(C)(=O)=O)c2)cc1-n1nncc1-c1ccc(OC(F)(F)F)cc1 [Example 202, [3,3′-difluoro-5-(methylsulfonyl)-4′-[2-methyl-4-(trifluoromethyl)-1H-imidazol-1-yl]-5′-(5-{4-[(trifluoromethyl)oxy]phenyl)-1H-1,2,3-triazol-1-yl)biphenyl-4-yl]methanol] |
| 303 | 31 | Cc1nc(-c2ccccc2C(F)(F)F)c(-c2cc(-c3cccc(S(C)(=O)=O)c3)ccc2-n2cc(C(F)(F)F)nc2C)o1 [Example 629, 2-methyl-5-(4-(2-methyl-4-(trifluoromethyl)-1H-imidazol-1-yl)-3′-(methylsulfonyl)-[1,1′-biphenyl]-3-yl)-4-(2-(trifluoromethyl)phenyl)oxazole] |
| 35 | 62 | Cc1nc(-c2cc(-c3cc(F)c(CO)c(S(C)(=O)=O)c3)ccc2-n2cc(C(F)(F)F)nc2C)c(-c2ccc(Cl)c(Cl)c2)o1 [Example 507, (3′-(5-(3,4-dichlorophenyl)-2-methyloxazol-4-yl)-3-fluoro-4′-(2-methyl-4-(trifluoromethyl)-1H-imidazol-1-yl)-5-(methylsulfonyl)biphenyl-4-yl)methanol] |
| 16 | 75 | Cc1nc(C(F)(F)F)cn1-c1ccc(-c2cc(F)c(CO)c(S(C)(=O)=O)c2)cc1-c1nc(C(C)C)oc1-c1ccc(OC(F)(F)F)cc1 [Example 560, (3-fluoro-3′-(2-isopropyl-5-(4-(trifluoromethoxy)phenyl)oxazol-4-yl)-4′-(2-methyl-4-(trifluoromethyl)-1H-imidazol-1-yl)-5-(methylsulfonyl)-[1,1′-biphenyl]-4-yl)methanol] |
| 19 | 73 | Cc1nc(-c2cc(-c3cc(F)c(CO)c(S(C)(=O)=O)c3)ccc2-n2cc(C(F)(F)F)nc2C)c(-c2ccc(OC(F)F)c(OC3CC3)c2)o1 [Example 387, (3′-(5-(3-cyclopropoxy-4-(difluoromethoxy)phenyl)-2-methyloxazol-4-yl)-3-fluoro-4′-(2-methyl-4-(trifluoromethyl)-1H-imidazol-1-yl)-5-(methylsulfonyl)biphenyl-4-yl)methanol] |
| 111 | 85 | CNS(=O)(=O)c1cccc(-c2cc(F)c(-n3cc(C(F)(F)F)nc3C)c(-n3nncc3-c3ccc(OC(F)(F)F)cc3)c2)c1 [Example 205, 3′-fluoro-N-methyl-4′-[2-methyl-4-(trifluoromethyl)-1H-imidazol-1-yl]-5′-(5-{4-[(trifluoromethyl)oxy]phenyl}-1H-1,2,3-triazol-1-yl)biphenyl-3-sulfonamide] |
| 198 | 84 | Cc1nc(-c2cc(-c3cccc(S(C)(=O)=O)c3)ccc2-n2cc(Cl)nc2C)c(-c2ccc(OC(F)F)c(F)c2)o1 [Example 466, 4-(4-(4-chloro-2-methyl-1H-imidazol-1-yl)-3′-(methylsulfonyl)biphenyl-3-yl)-5-(4-(difluoromethoxy)-3-fluorophenyl)-2-methyloxazole] |
| 198 | 89 | Cc1nc(C(F)(F)F)cn1-c1ccc(-c2ccc(CCO)c(S(C)(=O)=O)c2)cc1-n1nncc1-c1ccc(OC(F)(F)F)cc1 [Example 236, 2-(4′-(2-methyl-4-(trifluoromethyl)-1H-imidazol-1-yl)-3-(methylsulfonyl)-3′-(5-(4-(trifluoromethoxy)phenyl)-1H-1,2,3-triazol-1-yl)-[1,1′-biphenyl]-4-yl)ethanol] |
| 269 | 64 | Cc1nc(-c2cc(-c3cccc(S(C)(=O)=O)c3)ccc2-n2cc(C(F)(F)F)nc2C)c(-c2cc(F)cc(F)c2)o1 [Example 447] |
